Data: patent US11905264B1, “N′-(2-(5-(4-chlorophenyl)-1,3,4-oxadiazol-2-ylthio)acetoxy)-4-nitrobenzimidamide as an antimicrobial compound” (KING FAISAL UNIVERSITY, priority 2023, dated 2024)

Legend:
Format in all cases: cell-based
Bacillus cereus = test: Agar plate disc-diffusion, antibacterial inhibition zone; conditions: Gram positive, nutrient agar, 37° C.
Procedure: (§1) The agar plate disc-diffusion method was applied. […] The discs were then placed onto the surface of agar plates (nutrient agar for bacteria and Sabouraud's dextrose agar for fungi) seeded with the test organism. Each plate contained 15 mL of the agar medium, previously seeded with 0.2 mL of the broth culture of each organism pregrown for 18 hours. The plates were incubated at 37° C. for 48 hours and 72 hours for fungi. The inhibition zones were measured in mm. Discs impregnated with DMSO were used as a control, and their inhibition zone was subtracted from the tested compound's actual inhibition zone.

Staphylococcus aureus = test: as above; conditions: Gram positive, nutrient agar, 37° C.
Procedure: as §1

Pseudomonas aeruginosa = test: as above; conditions: Gram negative, nutrient agar, 37° C.
Procedure: as §1

Escherichia coli = test: as above; conditions: Gram negative, nutrient agar, 37° C.
Procedure: as §1

[1] = tested on: Chrysosporium keratinophilum; test: Agar plate disc-diffusion, antifungal inhibition zone; conditions: Sabouraud's dextrose agar, 72 hours
Procedure: as §1

Aspergillus flavus = test: as above; conditions: Sabouraud's dextrose agar, 72 hours
Procedure: as §1

[2] = A = concentration of comp. = 10,000 μL
[3] = B = concentration of comp. = 30,000 μL
[4] = C = concentration of comp. = 50,000 μL

N/C(=N\OC(=O)CSc1nnc(-c2ccc(Cl)cc2)o1)c1ccc([N+](=O)[O-])cc1 [Compound 3, N′-(2-(5-(4-chlorophenyl)-1,3,4-oxadiazol-2-ylthio)acetoxy)-4-nitrobenzimidamide]
inhibition zone, Bacillus Cereus, A (Bacillus cereus; [2]): 27 mm
inhibition zone, Bacillus Cereus, B (Bacillus cereus; [3]): 29 mm
inhibition zone, Bacillus Cereus, C (Bacillus cereus; [4]): 40 mm
inhibition zone, Staphylococcus aureus, A (Staphylococcus aureus; [2]): 17 mm
inhibition zone, Staphylococcus aureus, B (Staphylococcus aureus; [3]): 20 mm
inhibition zone, Staphylococcus aureus, C (Staphylococcus aureus; [4]): 37 mm
inhibition zone, Pseudomonas aeruginosa, A (Pseudomonas aeruginosa; [2]): 22 mm
inhibition zone, Pseudomonas aeruginosa, B (Pseudomonas aeruginosa; [3]): 26 mm
inhibition zone, Pseudomonas aeruginosa, C (Pseudomonas aeruginosa; [4]): 40 mm
inhibition zone, Escherichia coli, A (Escherichia coli; [2]): 27 mm
inhibition zone, Escherichia coli, B (Escherichia coli; [3]): 31 mm
inhibition zone, Escherichia coli, C (Escherichia coli; [4]): 50 mm
inhibition zone, Chrysosporium keratinophilum, A ([1]; A =): 26 mm
inhibition zone, Chrysosporium keratinophilum, B [1, 3]: 28 mm
inhibition zone, Chrysosporium keratinophilum, C [1, 4]: 41 mm
inhibition zone, Aspergillus flavus, A (Aspergillus flavus; [2]): 23 mm
inhibition zone, Aspergillus flavus, B (Aspergillus flavus; [3]): 27 mm
inhibition zone, Aspergillus flavus, C (Aspergillus flavus; [4]): 39 mm
